Data: patent US20260364214A1, “MULTIVALENT FIBROBLAST ACTIVATION PROTEIN LIGANDS FOR TARGETED DELIVERY APPLICATIONS” (Philochem AG, priority 2022, published 2026)

Assays:
[1] = tested on: SK-RC-52.hFAP tumors; test: Quantitative biodistribution in SK-RC-52.hFAP tumor bearing mice; format: in vivo, mouse (female athymic Balb/c AnNRj-Foxn1); settings: i.v. 250 nmol/kg, 50 MBq/kg
How it was run: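 Female athymic Balb/c nude mice carried subcutaneous SK-RC-52.hFAP tumors (5 million cells, ~300 mm^3). 177Lu-labeled conjugates were given i.v. at 250 nmol/kg, 50 MBq/kg. Tissues gamma-counted at several time points as %ID/g±SD, tumor values corrected for growth rate; tumor-to-organ ratios derived.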

[2] = Tolerability (body weight change) of 177Lu conjugates; format: in vivo, mouse (athymic Balb/c AnNRj-Foxn1); settings: single administration, 250 nmol/kg, 250 MBq/kg
Method: The anti-cancer efficacy of ^177Lu-ESV6, ^177Lu-Bi-ESV6 and ^177Lu-Tri-ESV6 was assessed in athymic Balb/c AnNRj-Foxn1 mice bearing SK-RC-52.hFAP tumor in the right flank. ^177Lu-ESV6, ^177Lu-Bi-ESV6 or ^177Lu-Tri-ESV6 were intravenously administered at a dose of 250 nmol/kg, 250 MBq/kg (single administration on day 9 after tumor implantation). Therapy experiments started when the average volume of established tumors had reached 100-150 mm^3. Body weight of the animals and tumor volume were daily measured and recorded. Tumor dimensions were measured with an electronic caliper and tumor volume was calculated with the formula (long side, mm)×(short side, mm)×(short side, mm)×0.5. Animals were euthanized when one or more termination criterium indicated by the experimental license was reached. Prism 7 software (GraphPad Software) was used for data analysis.

[3] = 6 h post injection, listed as 177Lu-TriESV6-DOTAGA, 360 min

## N#CC1CC(F)(F)CN1C(=O)CNC(=O)c1ccnc2c(NC(=O)CCC(=O)NCCNC(=O)CCOCC(COCCC(=O)NCCNC(=O)CCC(=O)Nc3cccc4c(C(=O)NCC(=O)N5CC(F)(F)CC5C#N)ccnc34)(COCCC(=O)NCCNC(=O)CCC(=O)Nc3cccc4c(C(=O)NCC(=O)N5CC(F)(F)CC5C#N)ccnc34)NC(=O)CCC(C(=O)O)N3CCN(CC(=O)[O-])CCN(CC(=O)[O-])CCN(CC(=O)[O-])CC3)cccc12.[177Lu+3] (stereo not shown) [^177Lu-Tri-ESV6-DOTAGA]
[1]; 6 h
  Tumor to organs ratio, Blood: 260.4
  Tumor to organs ratio, Heart: 215.4
  Tumor to organs ratio, Intestine: 188.9
  Tumor to organs ratio, Kidney: 22.9
  Tumor to organs ratio, Liver: 76.3
  Tumor to organs ratio, Lung: 128.8
  Tumor to organs ratio, Muscle: 187.0
  Tumor to organs ratio, Spleen: 196.0
  Tumor to organs ratio, Tail: 48.4
[1]; 6 h post injection
  Injected dose per gram, Blood: 0.25 % ID/g
  Injected dose per gram, Heart: 0.23 % ID/g
  Injected dose per gram, Intestine: 0.26 % ID/g
  Injected dose per gram, Kidney: 2.14 % ID/g
  Injected dose per gram, Lung: 0.38 % ID/g
  Injected dose per gram, Muscle: 0.45 % ID/g
  Injected dose per gram, Tail: 1.06 % ID/g
[1]; 24 h
  Tumor to organs ratio, Blood: 284.8
  Tumor to organs ratio, Heart: 269.1
  Tumor to organs ratio, Intestine: 243.1
  Tumor to organs ratio, Kidney: 17.2
  Tumor to organs ratio, Liver: 43.9
  Tumor to organs ratio, Lung: 196.9
  Tumor to organs ratio, Muscle: 159.9
  Tumor to organs ratio, Spleen: 384.4
  Tumor to organs ratio, Tail: 65.3
[1]; 24 h post injection
  Injected dose per gram, Blood: 0.07 % ID/g
  Injected dose per gram, Heart: 0.08 % ID/g
  Injected dose per gram, Intestine: 0.10 % ID/g
  Injected dose per gram, Kidney: 1.16 % ID/g
  Injected dose per gram, Liver: 0.46 % ID/g
  Injected dose per gram, Lung: 0.10 % ID/g
  Injected dose per gram, Muscle: 0.18 % ID/g
  Injected dose per gram, Spleen: 0.16 % ID/g
  Injected dose per gram, Tail: 0.31 % ID/g
  Injected dose per gram, Tumor: 19.78 % ID/g
[1]; 48 h
  Tumor to organs ratio, Blood: 1925.8
  Tumor to organs ratio, Heart: 559.6
  Tumor to organs ratio, Intestine: 282.6
  Tumor to organs ratio, Kidney: 21.4
  Tumor to organs ratio, Liver: 56.2
  Tumor to organs ratio, Lung: 299.5
  Tumor to organs ratio, Muscle: 1095.4
  Tumor to organs ratio, Spleen: 244.8
  Tumor to organs ratio, Tail: 136.9
[1]; 48 h post injection
  Injected dose per gram, Blood: 0.01 % ID/g
  Injected dose per gram, Heart: 0.03 % ID/g
  Injected dose per gram, Intestine: 0.06 % ID/g
  Injected dose per gram, Kidney: 0.78 % ID/g
  Injected dose per gram, Liver: 0.31 % ID/g
  Injected dose per gram, Lung: 0.06 % ID/g
  Injected dose per gram, Muscle: 0.04 % ID/g
  Injected dose per gram, Spleen: 0.10 % ID/g
  Injected dose per gram, Tail: 0.14 % ID/g
  Injected dose per gram, Tumor: 16.64 % ID/g
[1]; 72 h
  Tumor to organs ratio, Blood: 7913.2
  Tumor to organs ratio, Heart: 344.2
  Tumor to organs ratio, Intestine: 498.0
  Tumor to organs ratio, Kidney: 24.8
  Tumor to organs ratio, Liver: 1294.6
  Tumor to organs ratio, Lung: 477.1
  Tumor to organs ratio, Muscle: 536.6
  Tumor to organs ratio, Spleen: 92.1
  Tumor to organs ratio, Tail: 108.9
[1]; 72 h post injection
  Injected dose per gram, Blood: 0.01 % ID/g
  Injected dose per gram, Heart: 0.07 % ID/g
  Injected dose per gram, Intestine: 0.07 % ID/g
  Injected dose per gram, Kidney: 0.83 % ID/g
  Injected dose per gram, Liver: 0.34 % ID/g
  Injected dose per gram, Lung: 0.11 % ID/g
  Injected dose per gram, Muscle: 0.04 % ID/g
  Injected dose per gram, Spleen: 0.24 % ID/g
  Injected dose per gram, Tail: 0.19 % ID/g
  Injected dose per gram, Tumor: 20.19 % ID/g
[1]; 96 h
  Tumor to organs ratio, Blood: 3504
  Tumor to organs ratio, Heart: 492
  Tumor to organs ratio, Intestine: 763
  Tumor to organs ratio, Kidney: 22
  Tumor to organs ratio, Liver: 41
  Tumor to organs ratio, Lung: 344
  Tumor to organs ratio, Muscle: 514
  Tumor to organs ratio, Spleen: 69
  Tumor to organs ratio, Tail: 98
[1]; 96 h post injection
  Injected dose per gram, Blood: 0.00 % ID/g
  Injected dose per gram, Heart: 0.03 % ID/g
  Injected dose per gram, Intestine: 0.02 % ID/g
  Injected dose per gram, Kidney: 0.73 % ID/g
  Injected dose per gram, Liver: 0.40 % ID/g
  Injected dose per gram, Lung: 0.06 % ID/g
  Injected dose per gram, Muscle: 0.03 % ID/g
  Injected dose per gram, Spleen: 0.24 % ID/g
  Injected dose per gram, Tail: 0.17 % ID/g
  Injected dose per gram, Tumor: 16.26 % ID/g
[1]; 6 h post injection, 360 min
  Injected dose per gram, Liver: 0.65 % ID/g
  Injected dose per gram, Spleen: 0.30 % ID/g
  Injected dose per gram, Tumor: 48.96 % ID/g
[1]; [3]
  Injected dose per gram, Liver: ~ 0.7 % ID/g
  Injected dose per gram, Spleen: ~ 0.3 % ID/g
  Injected dose per gram, Tumor: ~ 49 % ID/g
[1]
  tumor uptake / biodistribution profile, in words: best biodistribution profile
[2]
  tolerability (body weight change), in words: very well tolerated
